8 molecules from US20230094176A1, “COMPOUNDS AND METHODS FOR IMPROVING IMPAIRED ENDOGENOUS FIBRINOLYSIS USING HISTONE DEACETYLASE INHIBITORS” (Cereno Scientific AB, priority 2011, published 2023) can be followed below.

Assay [1] has as its system t-PA mRNA expression in human umbilical vein endothelial cells (HUVECs). Put plainly: In vitro dose response: t-PA mRNA (and protein) expression in HUVEC after 24 h. The format is cell-based. As to the method:
Human umbilical vein endothelial cells (HUVECs) were prepared by collagenase treatment of fresh umbilical cords (Jaffe, E. A., et al. J Clin Invest 52, 2745-2756 (1973)) obtained from the maternity ward of the Sahlgrenska University hospital, Gotheburg, Sweden. Cells were cultured in EGM-2 medium (Lonza, Basel, Switzerland) and all experiments were performed in passage 1 of subcultivation. Confluent HUVECs were exposed to 10 nM-10 μM of Vorinostat (Selleck Chemicals, Houston, Tex., USA) in complete medium for 24 h. After 24 h, cells and conditioned media were harvested.
Total RNA was prepared using RNeasy Mini RNA kit (Qiagen, Hilden, Germany) and genomic DNA was removed using RNase-free DNase I set (Qiagen). Levels of t-PA mRNA were analyzed with real-time RT-PCR, performed on an Applied Biosystems 7500 Fast Real-Time PCR System using cDNA and Taqman reagents obtained from Applied Biosystems (Foster City, Calif., USA). Hypoxanthine phosphoribosyl transferase (HPRT, Assay number Hs99999909_m1, Applied Biosystems) was used as endogenous internal standard.
Endothelial cells in culture are known to constitutively secrete the majority of synthesized t-PA making conditioned media a suitable source for quantification of t-PA protein. Conditioned medium from cell cultures was collected, centrifuged (10 000×g, 10 min, 4° C.) to remove cell debris, transferred to fresh tubes and stored at −70° C. Concentrations of t-PA antigen in conditioned media were determined using the commercially available TriniLize t-PA antigen ELISA (Trinity Biotech, Bray, Ireland) according to manufacturer's protocol.

In assay [2] the test system is local release of t-PA from the endothelium. The assay is described as follows: Intermediate endpoint study: in vivo t-PA release in man (perfused-forearm model, Substance P). On the set-up: species or system human. The note with it: for increase of total amount of t-PA released (AUC): patients with stable angina pectoris, 2 weeks, daily oral dose: Vorinostat 10 mg, Belinostat 65 mg, Givinostat 2 mg, Panobinostat 0.5 mg, PCI-24781 2 mg, JNJ-26481585 0.2 mg, Mocetinostat 2 mg, SB939 0.4 mg, CXD101 10 mg. As to the method: The study comprises 16 patients with stable angina pectoris. Patients are investigated before and after oral treatment with 10 mg Vorinostat (Zolinza®, Merck & Co., Inc, NJ, USA) daily for 2 weeks. The study has a randomized, cross-over design and t-PA release capacity is investigated before and after treatment, with each individual serving as his/her own control
The capacity for t-PA release is investigated in the perfused-forearm model that we have developed, which is the only method that permits a direct measurement of the local release of t-PA from the endothelium (Hrafnkelsdottir, T., et al. Lancet 352, 1597-1598 (1998), Wall, U., et al. Blood 91, 529-537 (1998)). Since t-PA has a rapid hepatic clearance, it is impossible to infer endothelial release rates from plasma levels obtained from standard venous samples. With the invasive model, however, net forearm t-PA release rates are calculated from arterio-venous concentration gradients of t-PA after correction for forearm plasma flow. Acute t-PA release responses are induced by intra-arterial infusions of Substance P (Bachem, Bubendorf, Switzerland), and the amount and protein secretion profile is used as a measure of t-PA release capacity.
The study comprises 16 patients with stable angina pectoris and elevated serum levels of high-sensitivity C-reactive protein (hs-CRP) >3 mg/L. Patients are investigated before and after oral treatment with 100 mg valproic acid twice daily for 2 weeks. The study has a randomized, cross-over design and t-PA release capacity is investigated before and after treatment, with each individual serving as his/her own control.
The capacity for t-PA release is investigated in the perfused-forearm model that we have developed, which is the only method that permit a direct measurement of the local release of t-PA from the endothelium (Hrafnkelsdottir, T., et al. Lancet 352, 1597-1598 (1998), Wall, U., et al. Blood 91, 529-537 (1998). Since t-PA has a rapid hepatic clearance, it is impossible to infer endothelial release rates from plasma levels obtained from standard venous samples.
With the invasive model, however, net forearm t-PA release rates are calculated from arterio-venous concentration gradients of t-PA after correction for forearm plasma flow. Acute t-PA release responses are induced by intra-arterial infusions of Substance P (Bachem, Bubendorf, Switzerland), and the amount and protein secretion profile is used as a measure of t-PA release capacity.

Assay [3] concerns high-risk patients with recent deep vein thrombosis or pulmonary embolus. Put plainly: Clinical outcome study for prevention of recurrent venous thromboembolic events. Format: in vivo, human. As to the method:
This study is performed in high-risk patients who have experienced a recent deep vein thrombosis or circulatory stable pulmonary embolus to investigate the preventive effect of Vorinostat treatment on the risk for recurrent venous thrombotic events. Patients with a cancer diagnosis who presents with a first episode of a proximal deep venous thrombosis without unstable pulmonary embolism will be included. The patients will receive conventional treatment (i.e warfarin for 3-6 months) and thereafter included in the study. Patients are randomized in a parallel study design to receive double-blind oral treatment with 10 mg Vorinostat or placebo daily, in addition to optimal conventional treatment. The event rate is monitored by Kaplan-Meyer statistics. The primary efficacy endpoint is the composite measure of either mortality, or recurrent deep venous thrombosis or pulmonary embolism. The study is event-driven to a total of 180 events in the placebo group. […] Thus, this study confirms the clinical efficacy and feasibility of using Vorinostat for secondary prevention of venous thromboembolism.
This study is performed in high-risk patients who have experienced a recent deep vein thrombosis or circulatory stable pulmonary embolus to investigate the preventive effect of VPA treatment on the risk for recurrent venous thrombotic events. Patients with a cancer diagnosis and low grade inflammation who present with a first episode of a proximal deep venous thrombosis without unstable pulmonary embolism are included. The patients receive conventional treatment (i.e warfarin for 3-6 months) and thereafter are included in the study. Patients are randomized in a parallel study design to receive double-blind oral treatment with 100 mg valproic acid or placebo twice daily, in addition to optimal conventional treatment. The event rate is monitored by Kaplan-Meyer statistics. The primary efficacy endpoint is the composite measure of either mortality, or recurrent deep venous thrombosis or pulmonary embolism. The study is event-driven to a total of 180 events in the placebo group. […] Thus, this study confirms the clinical efficacy and feasibility of using VPA for secondary prevention of venous thromboembolism.

Where [4] appears, read: daily oral dose: Vorinostat 10 mg, Givinostat 2 mg, Panobinostat 0.5 mg, PCI-24781 2 mg, JNJ-26481585 0.2 mg, Mocetinostat 2 mg, SB939 0.4 mg, CXD101 10 mg, Belinostat example prints 10 mg Vorinostat.

The structures appear in SMILES notation. Read-outs that look alike come from different tables or passages of the source.

Regarding `O=C(/C=C/c1cccc(S(=O)(=O)Nc2ccccc2)c1)NO` [Belinostat], in assay [1], the “concentration at which a significant increase of t-PA mRNA levels was seen” value was 10 nM, the “concentration of maximal effect on t-PA expression” value (“concentration of maximal effect” for short) was “around 3 μM” and the “increase of t-PA expression at maximal effect” value (from here on “increase of t-PA expression”) was “approximately 10 times”. Moreover, in assay [2], the “increase of total amount of t-PA released (AUC)” value (“increase of total amount … (AUC)” below) is given as “approximately 50%”. Besides, the “reduction of risk for recurrent venous thrombotic events, in addition to conventional therapy” value (from here on “reduction of risk”) in assay [3] (setting [4]) is “approximately 30%”.
Consider `Nc1ccccc1NC(=O)c1ccc(CNc2nccc(-c3cccnc3)n2)cc1` [Mocetinostat], for which, in assay [1], the “concentration at which a significant increase of t-PA mRNA levels was seen” value was 100 nM, the “concentration of maximal effect” value is recorded as “around 3 μM” and the “increase of t-PA expression” value is on record as “approximately 15 times”. For the same molecule, in assay [1] (present-tense Examples 3-9), the “concentration at which a significant increase of t-PA mRNA levels is seen” value came out at 10 nM, the “concentration of maximal effect” value was “around 3 μM” and the “increase of t-PA expression” value is given as “approximately 10 times”. In addition, the “increase of total amount … (AUC)” value in assay [2] was “approximately 50%”. For the same molecule, the “reduction of risk” value in assay [3] (setting [4]) was “approximately 30%”.
On to `CCN(CC)Cc1ccc2cc(COC(=O)Nc3ccc(C(=O)NO)cc3)ccc2c1.Cl` [Givinostat], for which, in assay [1], the “concentration at which a significant increase of t-PA mRNA levels was seen” value is 30 nM, the “concentration of maximal effect” value stood at 0.3 µM and the “increase of t-PA expression” value came to 10 times. Further, in assay [1] (present-tense Examples 3-9), the “concentration at which a significant increase of t-PA mRNA levels is seen” value is listed as 10 nM, the “concentration of maximal effect” value is listed as “around 0.3 μM” and the “increase of t-PA expression” value is given as “approximately 10 times”. In assay [2], the “increase of total amount … (AUC)” value is recorded as “approximately 50%”. Moreover, in assay [3] (setting [4]), the “reduction of risk” value is recorded as “approximately 30%”.
In the case of `Cc1nn(C)cc1CN1CCC(c2ccc(C(=O)Nc3ccccc3N)cc2)CC1` [CXD101], in assay [1] (present-tense Examples 3-9), the “concentration at which a significant increase of t-PA mRNA levels is seen” value turned out to be 10 nM, the “concentration of maximal effect” value is listed as “around 3 μM” and the “increase of t-PA expression” value is on record as “approximately 10 times”. In assay [2], the “increase of total amount … (AUC)” value was “approximately 50%”. In assay [3] (setting [4]), the “reduction of risk” value is “approximately 30%”.
As for `Cn1cc(CNCC2CCN(c3ncc(C(=O)NO)cn3)CC2)c2ccccc21` [JNJ-26481585, N-hydroxy-2-(4-((((1-methyl-1H-indol-3-yl)methyl)amino)methyl)piperidin-1-yl)pyrimidine-5-carboxamide], in assay [1], the “concentration at which a significant increase of t-PA mRNA levels was seen” value is 3 nM, the “concentration of maximal effect” value was “around 30 nM” and the “increase of t-PA expression” value is “approximately 6 times”. In assay [1] (present-tense Examples 3-9), the “concentration at which a significant increase of t-PA mRNA levels is seen” value stood at 1 nM, the “concentration of maximal effect” value is listed as “around 30 nM” and the “increase of t-PA expression” value is on record as “approximately 10 times”. The “increase of total amount … (AUC)” value in assay [2] was “approximately 50%”. The “reduction of risk” value in assay [3] (setting [4]) is recorded as “approximately 30%”.
On to `CN(C)Cc1c(C(=O)NCCOc2ccc(C(=O)NO)cc2)oc2ccccc12` [PCI-24781, 3-(dimethylaminomethyl)-N-[2-[4-(hydroxycarbamoyl)phenoxy]ethyl]-1-benzofuran-2-carboxamide], for which, in assay [1], the “concentration at which a significant increase of t-PA mRNA levels was seen” value was determined as 100 nM, the “concentration of maximal effect” value is reported as “around 1 μM” and the “increase of t-PA expression” value is recorded as “approximately 6 times”. Besides, in assay [1] (present-tense Examples 3-9), the “concentration at which a significant increase of t-PA mRNA levels is seen” value is reported as 1 nM, the “concentration of maximal effect” value is recorded as “around 0.3 μM” and the “increase of t-PA expression” value is on record as “approximately 10 times”. In addition, the “increase of total amount … (AUC)” value in assay [2] is on record as “approximately 50%”. Also, the “reduction of risk” value in assay [3] (setting [4]) is “approximately 30%”.
With `O=C(CCCCCCC(=O)Nc1ccccc1)NO` [Vorinostat], in assay [1], the “concentration at which a significant increase of t-PA mRNA levels was seen” value was determined as 50 nM, the “concentration of maximal effect” value is given as “around 3 μM” and the “increase of t-PA expression” value is “approximately 7 times”. The “increase of total amount … (AUC)” value in assay [2] was “approximately 50%”. For the same molecule, in assay [3] (setting [4]), the “reduction of risk” value is given as “approximately 30%”.
`CCCC(CCC)C(=O)O` [VPA, valproic acid]: in assay [2] (stable angina pectoris and hs-CRP >3 mg/L, 100 mg valproic acid orally twice daily for 2 weeks), the “increase of total amount of t-PA released” value is given as “approximately 50%”. Also, the “reduction of risk” value in assay [3] (cancer diagnosis and low grade inflammation, 100 mg valproic acid orally twice daily) is recorded as “approximately 30%”.
